We go through 10 compounds from US20060058380A1, “Novel aminobenzophenone compounds” (priority 2002, published 2006).

Series [1] is described as follows: Discolouring of compounds on filter paper before and after sun-test illumination. The class given is physicochemical. Also noted: key: 0: No colour; 1: Very faint colour; 2: Light colour; 3: Medium colour; 4: Strong colour. The note with it: for Colour score prior to illumination: 10 mM in Ethanol:Labrasol:water 65:25:10, 10 ul spot on filter paper dried 15 minutes; for Colour score after illumination: spots illuminated in sun-test cabinet (Heraeus Suntest CPS), outdoor illumination, 5 minutes. On the procedure:
The discolouring of compounds of formula I was investigated in a comparison with known aminobenzophenones.
Compounds were dissolved in DMSO at 100 mM. The solutions were diluted 1:10 in the test vehicle (Ethanol:Labrasol:water 65:25:10) just prior to the experiment. 10 ul aliquots were placed in droplets on filter paper and allowed to dry for 15 minutes into spots. Then the colour of the spots was scored using the following scale:
The spots were illuminated in a sun-test cabinet (Heraeus Suntest CPS) set for outdoor illumination for 5 minutes. The scoring was repeated after illumination.

Series [2] deals with IL-1β. The experiment in a line: Inhibition of IL-1β secretion in LPS stimulated peripheral blood mononuclear cells. It is filed as cell-based. Particulars: PBMC; LPS stimulated human peripheral blood mononuclear cells, 18 hours, ELISA; read-out: The median inhibition concentration (IC50, nM) IL-1β. On the procedure:
(§1) To study the effect of the compound of the present invention in vitro the inhibition of the IL-1β and TNF-α secretion was measured using the following procedure:
(§2) Cytokine production was measured in the media from lipopolysaccharide (LPS) stimulated peripheral blood mononuclear cells. The mononuclear cells were isolated from human peripheral blood by Lymphoprep® (Nycomed, Norway) fractionation and suspended in RPMI 1640 (growth medium) with foetal calf serum (FCS, 2%), at a concentration of 5×10^5 cells/ml. The cells were incubated in 24-well tissue culture plates in 1 ml aliquots. Test compounds were dissolved in dimethylsulfoxide (DMSO, 10 mM) and were diluted with the medium. Compounds were added to the cells for 30 minutes, then LPS ([…] final concentration) was added. The plates were incubated for 18 hours, and the concentration of IL-1β and TNF-α in the medium was determined by enzyme-linked immunosorbent assays. The median inhibitory concentrations (IC50) of the compounds were calculated.

Series [3] has as its system TNF-α. The experiment in a line: Inhibition of TNF-α secretion in LPS stimulated peripheral blood mononuclear cells. Particulars: PBMC; LPS stimulated human peripheral blood mononuclear cells, 18 hours, ELISA; read-out: The median inhibition concentration (IC50, nM) TNF-α. It is filed as cell-based. How it is done:
as §1, §2
(In general: In an ELISA, binding on a coated surface is turned into a signal by an enzyme label.)

The test system of series [4] is comedones. The experiment in a line: Rhino mouse model, reduction of number of comedones. It is filed as in vivo. Particulars: topical on the back daily for 21 days, 45 mM in acetone, percentage change compared to untreated control group. On the procedure:
The rhino mouse is an in vivo model for the study of hyperplastic and comedolytic potency of compounds used in the treatment of acne. The rhino mouse has follicles on the skin, the orifices of which are distended with horny material, and these structures resembles human comedones.
The model uses mouse of the strain RHJ/LeJ Rhino, hr^rh/hr^rh. The mice are treated topically on the back daily for 21 days with the test compound. Compounds are tested for their ability to reduce the number of comedones.
The number of comedones in the skin of the mouse is determined by histological examination. The percentage change in the number of comedones compared to an untreated control group is calculated. The compounds were applied at 45 mM dissolved in acetone.

For the compound `CNc1ccccc1C(=O)c1ccc(Nc2ccccc2N)cc1Cl` [Reference c, 4-(2-aminophenylamino)-2-chloro-2′-methylaminobenzophenon, reference compound], in series [1], the “Colour score prior to illumination” value is 1 and the “Colour score after illumination” value was 3.
As to `Cc1ccccc1C(=O)c1ccc(N(C(=O)OC(C)OC(=O)C(C)(C)O)c2ccc(F)cc2C)cc1Cl` (stereo not shown) [Compound 128, 2-Hydroxy-2-methyl-propionic acid 1-[[3-chloro-4-(2-methyl-benzoyl)-phenyl]-(4-fluoro-2-methyl-phenyl)-carbamoyloxy]-ethyl ester], the IC50 in series [2] worked out at 10 nM; in series [3], 7.9 nM.
Consider `Cc1ccccc1C(=O)c1ccc(N(C(=O)OC(C)OC(=O)c2cccnc2)c2ccc(F)cc2C)cc1Cl` (stereo not shown) [Compound 147, Nicotinic acid 1-[[3-chloro-4-(2-methyl-benzoyl)-phenyl]-(4-fluoro-2-methyl-phenyl)-carbamoyloxy]-ethyl ester], for which, in series [1], the “Colour score prior to illumination” value turned out to be 0 and the “Colour score after illumination” value was 0.
On to `Cc1cc(F)ccc1Nc1ccc(C(=O)c2ccccc2C)c(Cl)c1` [Reference a, 2-chloro-4-(4-fluoro-2-methyl-phenylamino)-2′-methylbenzophenone, reference compound], for which, in series [1], the “Colour score prior to illumination” value turned out to be 0 and the “Colour score after illumination” value is 3. Besides, in series [2], the IC50 worked out at 32 nM. Moreover, the IC50 in series [3] is 7.9 nM.
For `Cc1ccccc1C(=O)c1ccc(Nc2ccc(Br)cc2N)cc1Cl` [Reference b, 4-(2-amino-4-bromo-phenylamino)-2-chloro-2′-methylbenzophenone, reference compound], in series [1], the “Colour score prior to illumination” value was determined as 1 and the “Colour score after illumination” value worked out at 3.
For `Cc1ccccc1C(=O)c1ccc(N(C(=O)OC(C)OC(=O)CC(C)C)c2ccc(F)cc2C)cc1Cl` (stereo not shown) [Compound 133, 3-Methyl-butyric acid 1-[[3-chloro-4-(2-methyl-benzoyl)-phenyl]-(4-fluoro-2-methyl-phenyl)-carbamoyloxy]-ethyl ester], in series [1], the “Colour score prior to illumination” value is on record as 0 and the “Colour score after illumination” value is 0. Also, in series [2], the IC50 is 79 nM. Also, in series [3], the IC50 was 20 nM. Further, the “Reduction in number of comedones” value in series [4] is −61%.
Consider `CCCC(=O)OC(C)OC(=O)N(c1ccc(C(=O)c2ccccc2C)c(Cl)c1)c1ccc(F)cc1C` (stereo not shown) [Compound 112, Butyric acid 1-[[3-chloro-4-(2-methyl-benzoyl)-phenyl]-(4-fluoro-2-methyl-phenyl)-carbamoyloxy]-ethyl ester], for which, in series [1], the “Colour score prior to illumination” value stood at 0 and the “Colour score after illumination” value was found to be 0. In addition, in series [2], the IC50 amounted to 25 nM. Besides, in series [3], the IC50 was 12 nM. For the same compound, the “Reduction in number of comedones” value in series [4] was −56%.
On to `COCC(=O)OC(C)OC(=O)N(c1ccc(C(=O)c2ccccc2C)c(Cl)c1)c1ccc(F)cc1C` (stereo not shown) [Compound 119, Methoxy-acetic acid 1-[[3-chloro-4-(2-methyl-benzoyl)-phenyl]-(4-fluoro-2-methyl-phenyl)-carbamoyloxy]-ethyl ester], for which, in series [1], the “Colour score prior to illumination” value is 0 and the “Colour score after illumination” value was 0.
For the compound `C/C=C/C(=O)OC(C)OC(=O)N(c1ccc(C(=O)c2ccccc2C)c(Cl)c1)c1ccc(F)cc1C` (stereo not shown) [Compound 137, (E)-But-2-enoic acid 1-[[3-chloro-4-(2-methyl-benzoyl)-phenyl]-(4-fluoro-2-methyl-phenyl)-carbamoyloxy]-ethyl ester], the IC50 is 7.9 nM in series [2] and 5 nM in series [3].
In the case of `CCCC(=O)OCOC(=O)N(c1ccc(C(=O)c2ccccc2C)c(Cl)c1)c1ccc(F)cc1C` [Compound 113, Butyric acid [[3-chloro-4-(2-methyl-benzoyl)-phenyl]-(4-fluoro-2-methyl-phenyl)-carbamoyloxy]-methyl ester], the “Colour score prior to illumination” value in series [1] was 0. Moreover, the “Colour score after illumination” value in series [1] worked out at 0. The figures for the IC50 in series [2] and in series [3] were 50 nM and 10 nM, respectively. In addition, the “Reduction in number of comedones” value in series [4] is recorded as −72%.
